From PubChem BioAssay (NCI)
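A five-concentration, 48-hour dose response in 96-well plates underlies each endpoint, interpolated linearly between surrounding concentrations. Definition used: TGI = concentration required for complete inhibition of growth.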

Legend:
Assay in all cases: NCI tumour cell line growth inhibition, 48 h
[1] = system: 786-0 renal
[2] = system: A549 NSCLC
[3] = system: ACHN renal
[4] = system: CAKI-1 renal
[5] = system: COLO 205 colon
[6] = system: DU-145 prostate
[7] = system: EKVX NSCLC
[8] = system: HCC-2998 colon
[9] = system: HCT-116 colon
[10] = system: HCT-15 colon
[11] = system: HL-60(TB) leukemia
[12] = system: HOP-62 NSCLC
[13] = system: HOP-92 NSCLC
[14] = system: HS 578T breast
[15] = system: HT29 colon
[16] = system: IGROV1 ovarian
[17] = system: K-562 leukemia
[18] = system: KM12 colon
[19] = system: LOX IMVI melanoma
[20] = system: M14 melanoma
[21] = system: MALME-3M melanoma
[22] = system: MCF7 breast
[23] = system: MDA-MB-231 breast
[24] = system: MDA-MB-435
[25] = system: MDA-N
[26] = system: NCI-H226 lung
[27] = system: NCI-H23 lung
[28] = system: NCI-H460 lung
[29] = system: NCI/ADR-RES ovarian
[30] = system: OVCAR-3 ovarian
[31] = system: OVCAR-4 ovarian
[32] = system: OVCAR-5 ovarian
[33] = system: OVCAR-8 ovarian
[34] = system: PC-3 prostate
[35] = system: RPMI-8226 leukemia
[36] = system: RXF 393 renal
[37] = system: SF-268 CNS
[38] = system: SF-295 CNS
[39] = system: SF-539 CNS
[40] = system: SK-MEL-2 melanoma
[41] = system: SK-MEL-28 melanoma
[42] = system: SK-MEL-5 melanoma
[43] = system: SK-OV-3 ovarian
[44] = system: SN12C renal
[45] = system: SNB-19 CNS
[46] = system: SW-620 colon
[47] = system: T-47D breast
[48] = system: TK-10 renal
[49] = system: U251 CNS
[50] = system: UACC-257 melanoma
[51] = system: UACC-62 melanoma
[52] = system: UO-31 renal

Measured: TGI

CC1=[N+]([O-])C2(CCCC2)N(O)C1(C)C
> 100 µM: all assays above
